Measurements reported in the NIST ThermoML archive (doi:10.1021/je700260f).
± gives the expanded uncertainty stated by the source.

Settings: Liquid, Vibrating tube method

FC(C(F)(F)F)C(F)(F)F [1,1,1,2,3,3,3-heptafluoropropane]
Settings	mass density [kg/m3]
313.15 K, 33848 kPa	1503.2 ± 1.7
313.15 K, 33888 kPa	1503.3 ± 1.7
313.15 K, 33928 kPa	1503.5 ± 1.7
313.15 K, 33981 kPa	1503.8 ± 1.7
313.15 K, 34027 kPa	1503.8 ± 1.7
313.15 K, 34060 kPa	1503.9 ± 1.7
313.15 K, 34100 kPa	1504 ± 1.7
313.15 K, 34136 kPa	1504.1 ± 1.7
313.15 K, 34171 kPa	1504.4 ± 1.7
313.15 K, 34201 kPa	1504.5 ± 1.7
313.15 K, 34232 kPa	1504.6 ± 1.7
313.15 K, 34269 kPa	1504.6 ± 1.7
313.15 K, 34305 kPa	1504.8 ± 1.7
313.15 K, 34336 kPa	1504.7 ± 1.7
313.15 K, 34374 kPa	1505 ± 1.7
313.15 K, 34408 kPa	1505.1 ± 1.7
313.15 K, 34430 kPa	1505.2 ± 1.7
313.15 K, 34451 kPa	1505.2 ± 1.7
313.15 K, 34461 kPa	1505.2 ± 1.7
313.15 K, 34473 kPa	1505.2 ± 1.7
313.15 K, 34482 kPa	1505.4 ± 1.7
313.15 K, 34489 kPa	1505.4 ± 1.7
313.16 K, 1420 kPa	1328.8 ± 1.5
313.16 K, 1448 kPa	1329.3 ± 1.5
313.16 K, 9648 kPa	1395.4 ± 1.5
313.16 K, 9676 kPa	1395.6 ± 1.5
313.16 K, 9701 kPa	1395.7 ± 1.5
313.16 K, 9733 kPa	1395.9 ± 1.5
313.16 K, 9768 kPa	1396.1 ± 1.5
313.16 K, 9796 kPa	1396.4 ± 1.5
313.16 K, 10034 kPa	1397.9 ± 1.5
313.16 K, 11599 kPa	1407.5 ± 1.5
313.16 K, 11650 kPa	1407.8 ± 1.5
313.16 K, 16202 kPa	1432.4 ± 1.6
313.16 K, 16267 kPa	1432.9 ± 1.6
313.16 K, 16535 kPa	1434.1 ± 1.6
313.16 K, 16676 kPa	1434.8 ± 1.6
313.16 K, 16775 kPa	1435.3 ± 1.6
313.16 K, 21124 kPa	1455.4 ± 1.6
313.16 K, 21173 kPa	1455.5 ± 1.6
313.16 K, 23260 kPa	1464.4 ± 1.6
313.16 K, 23309 kPa	1464.6 ± 1.6
313.16 K, 23346 kPa	1464.7 ± 1.6
313.16 K, 25084 kPa	1471.9 ± 1.6
313.16 K, 25125 kPa	1471.9 ± 1.6
313.16 K, 25173 kPa	1472.1 ± 1.6
323.13 K, 960 kPa	1272.4 ± 1.5
323.13 K, 990 kPa	1272.7 ± 1.5
323.13 K, 1310 kPa	1277.3 ± 1.5
323.13 K, 1540 kPa	1280.5 ± 1.5
323.13 K, 1600 kPa	1281.2 ± 1.5
323.13 K, 1800 kPa	1283.9 ± 1.5
323.13 K, 1820 kPa	1284.2 ± 1.5
323.13 K, 1840 kPa	1284.5 ± 1.5
323.13 K, 2040 kPa	1287.1 ± 1.5
323.13 K, 2060 kPa	1287.3 ± 1.5
323.13 K, 2080 kPa	1287.6 ± 1.5
323.13 K, 2100 kPa	1287.9 ± 1.5
323.13 K, 2120 kPa	1288.2 ± 1.5
323.13 K, 2140 kPa	1288.3 ± 1.5
323.13 K, 2160 kPa	1288.7 ± 1.5
323.13 K, 2180 kPa	1288.9 ± 1.5
323.13 K, 2190 kPa	1289.2 ± 1.5
323.13 K, 2220 kPa	1289.2 ± 1.5
323.13 K, 2230 kPa	1289.4 ± 1.5
323.13 K, 2250 kPa	1289.8 ± 1.5
323.13 K, 2270 kPa	1290 ± 1.5
323.13 K, 3000 kPa	1298.9 ± 1.5
323.13 K, 3030 kPa	1299.3 ± 1.5
323.13 K, 3090 kPa	1299.8 ± 1.5
323.13 K, 3110 kPa	1300.2 ± 1.5
323.13 K, 3130 kPa	1300.3 ± 1.5
323.13 K, 3150 kPa	1300.6 ± 1.5
323.13 K, 3180 kPa	1300.8 ± 1.5
323.13 K, 3200 kPa	1301.3 ± 1.5
323.13 K, 3230 kPa	1301.4 ± 1.5
323.13 K, 3250 kPa	1301.7 ± 1.5
323.13 K, 3270 kPa	1301.9 ± 1.5
323.13 K, 3290 kPa	1302.2 ± 1.5
323.13 K, 4770 kPa	1317.9 ± 1.5
323.13 K, 4790 kPa	1318.1 ± 1.5
323.13 K, 4820 kPa	1318.3 ± 1.5
323.13 K, 4850 kPa	1318.7 ± 1.5
323.13 K, 4880 kPa	1318.9 ± 1.5
323.13 K, 4900 kPa	1319.2 ± 1.5
323.13 K, 4920 kPa	1319.4 ± 1.5
323.13 K, 6440 kPa	1333.7 ± 1.5
323.13 K, 6489 kPa	1334.1 ± 1.5
323.13 K, 6508 kPa	1334 ± 1.5
323.13 K, 6533 kPa	1334.5 ± 1.5
323.13 K, 6605 kPa	1335.1 ± 1.5
323.13 K, 6623 kPa	1335.3 ± 1.5
323.13 K, 6650 kPa	1335.4 ± 1.5
323.13 K, 6668 kPa	1335.7 ± 1.5
323.13 K, 6696 kPa	1335.8 ± 1.5
323.13 K, 6716 kPa	1336 ± 1.5
323.13 K, 6734 kPa	1336.3 ± 1.5
323.13 K, 6759 kPa	1336.4 ± 1.5
323.13 K, 7026 kPa	1338.8 ± 1.5
323.14 K, 920 kPa	1271.8 ± 1.5
323.14 K, 940 kPa	1272.1 ± 1.5
323.14 K, 1020 kPa	1273.1 ± 1.5
